Broadly, the IC50 is the concentration that gives 50% inhibition. The term Ki denotes the equilibrium dissociation constant of an inhibitor or competing ligand from its target.

The target of data set [1] is T1, PDE10A (Homo sapiens, UniProt Q9Y233).
T1 construct: purchased Biocrea GmbH, Radebeul, Germany; host or cells: SF21 insect cells (PDE10A-transfected; baculovirus system is mentioned)
The following applies: cited from earlier work.

Data set [2] can be described thus: log D7.0 by RP-HPLC retention. In kind it is physicochemical. The following applies: MeCN/NH4OAc, pH 7.0, read-out: Log D. An excerpt: To clarify these findings, we determined the ligand distribution coefficients for [^18/19F]IV experimentally, under physiological pH conditions in solid-liquid phase systems via retention on RP-HPLC, and in liquid-liquid phase systems by conventional shake-flask method. […] All in one, an experimental log D7.0–7.4 value of ~2.7 promised a good potential for brain uptake of [^18F]IV in vivo, attended by low unspecific binding.
Referring to an OECD guideline and using a series of reference compounds (nitrobenzene, p-nitrophenol, benzene, toluene, chlorobenzene, benzophenone, naphthalene, 1,4-dibromobenzene, biphenyl, diphenylether, 1,4-diiodobenzene) with known log POW values comprised between 1.89 and 4.64, retention times were determined on two reversed phase columns (Multospher 120 RP-18 AQ, 250 mm × 4.6 mm, 5 μm, CS-Chromatographie Service GmbH, Langerwehe, Germany; SupelcosilTM ABZ + Plus, 250 × 4 mm, 5 μm, Supelco, Bellefonte, PA, USA). […] Dead times t0 were determined by retention of thiourea. Corresponding capacity factors k for all compounds were calculated and plotted as log k versus log P of the standard compounds, affording calibration curves (Microcal^TM Origin 6.0, Microcal Software, Inc., Northhampton, MA, USA). […]

Data set [3] addresses T1, PDE10A. Kind of data set: Homologous competitive binding on membrane homogenates of PDE10A-transfected SF21 cells. The conditions noted are these: read-out: IC50 (homologous competition vs [18F]IV). The procedure: The dissociation constant KD of [^18F]IV was determined in homologous competitive binding experiments by nonlinear regression analysis. Cell membrane homogenates from PDE10A-transfected SF21 cells (100 µg protein/mL incubation volume) were incubated with solutions of six concentrations of IV (working concentration 10 pM–[…]), each spiked with a fixed concentration of [^18F]IV (working concentration 0.05–0.1 nM).
Crude membrane homogenates isolated from PDE10A-transfected SF21 cells were obtained from Biocrea GmbH, Radebeul, Germany. For competitive radioligand displacement experiments (n = 2), the membrane preparations were diluted with incubation buffer (50 mM Tris-HCl, pH 7.4 at room temperature, 5 mM MgCl2) and re-homogenized by passing through a 27-gauge needle. The protein (100 µg) was incubated with 0.05–0.1 nM of [^18F]IV and different concentrations of IV (10 pM–1 µM), diluted from a 10 mM stock in DMSO, at a final volume of 1 mL. Nonspecific binding was determined in the presence of 10 µM of I, and control incubation was carried out accordingly using crude membrane preparations obtained from non-transfected SF21 cells.
Incubation at room temperature was terminated after 120 min by rapid filtration (Brandel 48-channel harvester; Biomedical Research and Development Lab. Inc., Gaithersburg, MD, USA) on Whatman GF/B glass-fiber filters, pre-soaked for 90 min in 0.3% polyethylenimine (Sigma, Deisenhofen, Germany), followed by washing four times with 4 mL of ice-cold wash buffer (50 mM Tris-HCl, pH 7.4 at 4 °C). Filter-bound radioactivity was quantified using a calibrated γ-counter (Wallac WIZARD, Perkin Elmer, Waltham, MA, USA).
Each experiment was carried out in triplicate. The binding parameter IC50 was estimated using iterative non-linear curve fitting. KD of [^18F]IV was estimated directly from homologous competition curve with KD = IC50-[radioligand] as well as from the respective saturation isotherm by nonlinear regression analysis.

For the next data set, the system named is PDE4A. On the set-up: method as in earlier work. The conditions noted are these: cited from earlier work.
The subject of another data set is PDE 11A. On the set-up: method as in earlier work. The following applies: cited from earlier work.
Another data set concerns PDE 1B. On the set-up: method as in earlier work. The conditions noted are these: cited from earlier work.
Another data set concerns PDE 9A. Also on record: method as in earlier work. The following applies: cited from earlier work.
The next data set deals with PDE3A. Also on record: method as in earlier work. The conditions noted are these: cited from earlier work.
The next data set has as its system PDE 6. On the set-up: method as in earlier work. The following applies: cited from earlier work.
Data set [4] has as its target T1, PDE10A. Also on record: method as in earlier work. The conditions noted are these: cited from earlier work.
Another data set deals with PDE 8A. Also on record: method as in earlier work. The conditions noted are these: cited from earlier work.
For a further data set, the system named is PDE 2A. On the set-up: method as in earlier work. The conditions noted are these: cited from earlier work.
For another data set, the system named is PDE 5A. On the set-up: method as in earlier work. The conditions noted are these: cited from earlier work.
The subject of another data set is PDE 7B. On the set-up: method as in earlier work. The following applies: cited from earlier work.

Where “and” joins values, the source holds several entries; their conditions need not be identical. Identical values can stand only once. Like-named read-outs stand apart in the source and are kept apart here. Some results are limits rather than exact numbers.

T1 sequence (Q9Y233 whole entry, species assumed): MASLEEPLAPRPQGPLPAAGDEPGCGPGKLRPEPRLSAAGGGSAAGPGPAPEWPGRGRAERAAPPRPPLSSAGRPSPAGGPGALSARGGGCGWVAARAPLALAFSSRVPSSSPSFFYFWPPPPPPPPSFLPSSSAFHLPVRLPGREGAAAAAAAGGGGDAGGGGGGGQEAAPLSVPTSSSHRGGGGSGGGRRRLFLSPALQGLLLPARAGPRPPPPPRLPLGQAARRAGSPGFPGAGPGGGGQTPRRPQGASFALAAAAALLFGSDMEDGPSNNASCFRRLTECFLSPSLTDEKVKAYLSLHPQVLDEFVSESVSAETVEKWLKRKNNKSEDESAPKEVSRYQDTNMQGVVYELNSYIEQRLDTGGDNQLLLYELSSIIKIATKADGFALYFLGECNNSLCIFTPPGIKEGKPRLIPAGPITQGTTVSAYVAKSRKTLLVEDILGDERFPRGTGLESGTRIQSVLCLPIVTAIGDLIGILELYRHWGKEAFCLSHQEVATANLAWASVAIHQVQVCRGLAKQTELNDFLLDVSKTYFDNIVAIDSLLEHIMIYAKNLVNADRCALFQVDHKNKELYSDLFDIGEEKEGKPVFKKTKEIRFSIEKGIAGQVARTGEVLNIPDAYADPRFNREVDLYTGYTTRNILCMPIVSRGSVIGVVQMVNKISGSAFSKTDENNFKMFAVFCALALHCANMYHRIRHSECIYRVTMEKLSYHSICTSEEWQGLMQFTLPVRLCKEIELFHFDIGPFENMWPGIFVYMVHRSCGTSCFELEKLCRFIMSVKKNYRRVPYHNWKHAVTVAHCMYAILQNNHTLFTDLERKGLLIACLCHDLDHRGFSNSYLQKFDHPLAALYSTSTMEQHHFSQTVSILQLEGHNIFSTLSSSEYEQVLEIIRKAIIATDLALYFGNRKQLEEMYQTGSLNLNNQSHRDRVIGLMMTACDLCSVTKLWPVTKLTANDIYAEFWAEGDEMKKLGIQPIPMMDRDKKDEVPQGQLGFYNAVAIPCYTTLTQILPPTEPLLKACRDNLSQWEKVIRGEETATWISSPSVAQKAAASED

Take `Cc1cnc(COc2ccc(-c3nn(CCF)cc3-c3ccncc3)cc2)c(C)c1` [JNJ42259152]: the “pIC50,PDE10A” value at PDE10A [1] is reported as 8.8.

As for `COc1cc2c(N3CC[C@@H](Oc4cnc5ccccc5n4)C3)ncnc2cc1OCCF` [IV, (R)-7-(2-fluoroethoxy)-6-methoxy-4-(3-(quinoxalin-2-yloxy)pyrrolidin-1-yl)quinazoline], the chromatographic logD in data set [2] (Multospher 120 RP-18 AQ column, Multospher) was 2.63; in data set [2] (Supelcosil ABZ+Plus column, Supelcosil) it was 2.63. In addition, the IC50 at PDE10A [3] (mean, n = 2, 0.05–0.1 nM [18F]IV) was 39.3 nM; on PDE10A [3] (single experiments (n = 2)) it was 38.3 nM and 40.4 nM; with PDE4A, 562 nM; with PDE 11A, greater than 1000 nM; with PDE 1B it was greater than 1000 nM; with PDE 9A, greater than 1000 nM. The IC50 with PDE3A is 88.7 nM; with PDE 6, greater than 1000 nM; on PDE10A [4] (PDE10A), 105 nM; in the data set on PDE 8A, greater than 1000 nM; in the data set with PDE 2A it was greater than 1000 nM; in the data set with PDE 5A it was greater than 1000 nM. The IC50 in the data set on PDE 7B was greater than 1000 nM. Moreover, at PDE10A [4] (data to be published in detail elsewhere), the inhibition constant (Ki) was 53 nM.

As to `FCCn1cc(-c2ccncc2)c(-c2ccc(OCc3ccc4ccccc4n3)cc2)n1` [JNJ41510417], on PDE10A [1], the IC50 is 0.5 nM and the “pIC50,PDE10A” value is given as 9.3.
